Experimental data from PubChem BioAssay AID1996.
Converted amounts (≈) assume the structure as drawn.

conditions: buffer; pH 7.4; 200.0 µM

Structure (SMILES)	solubility kinetic [µg/mL]
CSc1nccn1C(=O)c1ccccc1[N+](=O)[O-]	> 39.5
O=C(OCC(=O)N1CCc2ccccc21)[C@@H]1CC(O)CN1S(=O)(=O)c1ccccc1[N+](=O)[O-] (stereo not given in full)	20.4 (≈ 42.9 µM)
CC(NC(=O)c1ccco1)c1nc(-c2ccccc2)no1 (stereo not given)	31.7 (≈ 112 µM)
N#Cc1ccc(S(=O)(=O)Nc2ccc3ccccc3n2)cc1	27 (≈ 87.3 µM)
Fc1ccc2nc(Nc3ccccc3)sc2c1	0.5 (≈ 2.05 µM)
Cn1c(=O)oc2cc(S(=O)(=O)Nc3ccc(Cl)cc3)ccc21	4.1 (≈ 12.1 µM)
COc1ccc(N2C(=O)/C(=C/c3ccco3)C(=O)NC2=S)cc1	48.8 (≈ 149 µM)
CC1CCN(c2nc(N(C)c3ccccc3)nc(N)c2[N+](=O)[O-])CC1	4.6 (≈ 13.4 µM)
CC1(/[N+]([O-])=C/c2ccc(Cl)cc2Cl)CCCCC1=O (stereo not given)	42.9 (≈ 143 µM)
CCOC(=O)/C(C#N)=C/C1=C(N2CCOCC2)C(C)(C)OCC1	> 48.1
N#CC1(NC(=O)CSc2ccccn2)CCCCC1	> 41.3
Clc1ccc(-c2ccc(CN3CCCCC3)o2)cc1	30.1 (≈ 109 µM)
COc1ccc(CCNC(=O)COC(=O)c2cc(S(=O)(=O)N3CCOCC3)ccc2C)cc1OC	> 76
Cn1c(CNC(=O)C2CCCCC2)cc2cc(Cl)ccc21	< 0.3
Cc1cc(C)n2nc(SCCC(=O)NCc3ccccc3)nc2n1	> 51.2
COc1ccc(Nc2nc3c(C)cccn3c(=O)c2C=O)cc1	< 0.2
COc1ccc(C(=O)NCCCOc2cccc(NC(C)=O)c2)cc1	> 51.4
CCOC(=O)Cn1ccc(NC(=O)c2ccc(F)cc2)n1	> 43.7
CCSc1ncc(Cl)c(C(=O)Nc2ccccc2C)n1	0.5 (≈ 1.62 µM)
O=C(NC12CC3CC(CC(C3)C1)C2)c1cncc(Br)c1	8.5 (≈ 25.4 µM)
O=C(COC(=O)c1ccc(Cl)nc1)Nc1ccc(N2CCCCC2)cc1	10.9 (≈ 29.2 µM)
CCc1ccccc1NC(=O)NC1CCCCCCC1	0.5 (≈ 1.82 µM)

Structure (SMILES)	solubility kinetic [µg/mL]
CCC(=O)N(Cc1cc2ccccc2[nH]c1=O)c1ccccc1OC	32.2 (≈ 95.7 µM)
O=C(CN1C(=O)c2cccc3cccc(c23)C1=O)N1CCOCC1	> 48.7
O=[N+]([O-])CC(c1ccccc1)P(=O)(c1ccccc1)c1ccccc1 (stereo not given)	9.1 (≈ 25.9 µM)
Cn1c(C2=C(O)CN(Cc3ccccc3)C2=N)[n+](C)c2ccccc21.[Cl-]	48.2
Brc1ccc(-c2csc(N3CCOCC3)n2)cc1	< 0.3
CNC(=O)Cn1ncc2c3ccccc3n(C)c2c1=O	> 40.5
N#CCc1cc2ccc3cccc4ccc(c1)c2c34	< 0.5
CN1C(=O)C(=Cc2cccnc2)C(=O)N(C)C1=O	32.3 (≈ 132 µM)
Cc1cc(Cl)n2c(nc3cc(F)c(F)cc32)c1C#N	4.7 (≈ 16.9 µM)
CC(=O)Nc1ccc(NS(=O)(=O)c2cc([N+](=O)[O-])ccc2C)cc1	2.6 (≈ 7.44 µM)
O=C(NCc1ccc(F)cc1F)c1cc(COc2c(F)cccc2F)on1	1.5 (≈ 3.94 µM)
Cc1c(-c2ccncc2)oc2ccc(Br)cc2c1=O	< 0.7
NC(=O)c1nc(-c2ccccc2)c(-c2ccccc2)[nH]c1=O	> 43.7
COc1ccc(S(=O)(=O)NCCCc2ccccc2)cc1	40.8 (≈ 134 µM)
COc1ccc(/C=C2\SC(=S)N(CC3CCCO3)C2=O)cc1 (stereo not given)	< 0.7
OCC1CCCCN1C(=S)NCc1ccco1 (stereo not given)	32.1 (≈ 126 µM)
Cc1cc(C(=O)Nc2ccccc2C)c2ccccc2n1	34.7 (≈ 126 µM)
CSc1ccccc1NC(=O)c1ccccc1	28.8 (≈ 118 µM)
Cc1nn(CC(=O)N(CC(C)C)C2CCS(=O)(=O)C2)c(C)c1[N+](=O)[O-] (stereo not given)	> 55.9
Cc1nn(C)c(C)c1/C=C/C(=O)O	> 27
c1ccc2[nH]c(SCC3CCCCO3)nc2c1 (stereo not given)	> 37.3
CC1CN(CC(O)COC2CCC(C(C)(C)C)CC2)CC(C)O1.Cl (stereo not given)	48.8

Structure (SMILES)	solubility kinetic [µg/mL]
CC1CCN(C(=O)COC(=O)c2nn(C)c(=O)c3ccccc23)CC1	> 51.5
Cl.N=C(N)N1CCc2ccccc21	28.1
CSc1ccccc1NC(=O)c1csc(C)c1	30 (≈ 114 µM)
C=C(C)COc1ccc(-c2nc(N)ncc2-c2ccc(Cl)cc2)c(O)c1	1.9 (≈ 5.17 µM)
Cc1ccc(N2CC(c3nc4ccccc4n3C)CC2=O)cc1 (stereo not given)	> 45.8
COc1ccc(N2C(=O)c3ccccc3C2O)cc1 (stereo not given)	> 38.3
CCc1ccccc1NC(=O)CCC(=O)c1cccs1	32.1 (≈ 112 µM)
O=C(NCc1ccc2c(c1)OCO2)c1ccco1	> 36.8
O=S(=O)(c1ccc2oc(=S)[nH]c2c1)N1CCCCC1	> 44.8
Cc1onc(-c2ccccc2Cl)c1C(=O)N1CCN(C=O)CC1	> 50.1
O=C(C1CCCN1S(=O)(=O)c1ccc(Cl)cc1)N1CCN(c2ccccc2)CC1 (stereo not given)	15.3 (≈ 35.3 µM)
Cc1ccc(NC(=O)CN(C)Cc2ccc(Cl)cc2)cc1	20.6 (≈ 68 µM)
COc1ccccc1N1C(=O)c2cccc3cccc(c23)C1=O	< 0.6
COc1cc(C(=O)O)c([N+](=O)[O-])c(OC)c1OC	> 38.6
NC(=O)C1CCN(C(=O)c2cc(-c3ccc(Cl)cc3)nc3ccccc23)CC1	> 59.1
O=C(CN1C(=O)c2ccccc2C1=O)N(CCO)Cc1ccccc1	48.7 (≈ 144 µM)
O=C(Nc1nc2ccccc2s1)NC1CCCCC1	1.6 (≈ 5.81 µM)
Cc1cc(C)c(C#N)c(OCc2ccc(Cl)nc2)n1	8.5 (≈ 31.1 µM)
CCCOc1ccc(C2=CSC3=NCCN23)cc1Cl	40.4 (≈ 137 µM)
COc1ccc(/C=C/C(=O)Nc2ccccc2F)cc1S(=O)(=O)N1CCOCC1	37.5 (≈ 89.2 µM)
Cc1cc(C(=O)OCC(=O)Nc2ccccc2Br)c(C)o1	4.4 (≈ 12.5 µM)
CCc1noc(C)c1C(=O)OC(C)C(=O)Nc1ccc2c(c1)OCO2 (stereo not given)	14.4 (≈ 41.6 µM)

Structure (SMILES)	solubility kinetic [µg/mL]
COc1ccc(C)cc1CN1C(=O)c2ccccc2C1=O	4 (≈ 14.2 µM)
COc1cccc(CNC(=O)COC(=O)c2ccc(Cl)s2)c1	1.4 (≈ 4.12 µM)
Cc1ccc(NC(=O)C(=O)C2C(=O)Nc3ccccc32)cc1 (stereo not given)	39.8 (≈ 135 µM)
O=C(COC(=O)CNC(=O)c1ccc(F)cc1)NC1CCCc2ccccc21 (stereo not given)	> 57.7
Cc1ccc(S(=O)(=O)N(C)C)cc1NC(=O)C(C)OC(=O)C1CCCCC1 (stereo not given)	> 59.5
COc1cc(NC(=O)c2ccc(S(=O)(=O)N(C)c3ccccc3)cc2)cc(OC)c1	5 (≈ 11.7 µM)
CC(=O)c1sc(-c2cccc(Cl)c2)nc1C	3.1 (≈ 12.3 µM)
Cc1ccc(C(=O)NCCCNC(=O)c2ccco2)cc1C	43.4 (≈ 144 µM)
Cc1ccc(S(=O)(=O)n2cccc2C)cc1	5.1 (≈ 21.7 µM)
Cc1cccc(/C=C(\C(=O)O)c2ccc(S(=O)(=O)N3CCCC3)s2)c1	> 56.6
CNC(=O)O/N=C(\N)Cc1csc2ccccc12	39.2 (≈ 149 µM)
O=C(O)c1ccccc1-c1ccccc1C(=O)NCCc1ccccc1	50.4 (≈ 146 µM)
Cc1noc(C)c1C(=O)OC(C)C(=O)NC(C)c1ccc(Cl)cc1Cl (stereo not given)	10.6 (≈ 27.5 µM)
CCN1CCN(C(=O)C(C)Sc2nc3nc(C)cc(C)n3n2)CC1 (stereo not given)	> 52.3
c1ccc(CNc2c3ccccc3nc3ccccc23)cc1	40.5 (≈ 142 µM)
CSCC(=O)N1CCCC(CO)(CCCc2ccccc2)C1 (stereo not given)	> 48.2
CC(C)(CN1CCCC1)NS(=O)(=O)c1ccccc1.Cl	> 47.8
COc1ccccc1C(=O)N/C(=C\c1ccccc1)C(=O)NC(C)C(=O)O (stereo not given)	52.2 (≈ 142 µM)
O=C(Nc1cccc(-c2nc3ccccc3o2)c1)c1cccnc1	0.3 (≈ 0.951 µM)
